# Experimental data: article PMC10070186, “Unusual peptide-binding proteins guide pyrroloindoline alkaloid formation in crocagin biosynthesis” (Nature Chemistry, 2023)
# Entries after “also recorded” stand apart in the source; their conditions may differ.
# Experiments:
# CgnE [1] = test: ICP-MS iron binding to CgnE; design: species or system Chondromyces crocatus CM c5; settings: 5 mM fresh FeCl2, 30 min, PD10 desalting
# Procedure: Inductively Couple Plasma-Mass Spectrometry
# Experimental solutions were analysed using an Agilent 7500ce fitted with a self-aspire nebuliser tuned for a flow of 0.1 mL min-1 at the Scottish Universities Environmental Research Centre (SUERC).
# Samples were initially diluted to a protein concentration of 2 µM in 0.8 M HNO3. CgnB was dialyzed 4 x for 1 h at a dilution of 1 : 5000 in buffer containing 100 mM EDTA prior to analysis. CgnE was incubated with freshly prepared FeCl2 for 30 min (5 mM final FeCl2 concentration) and then subjected to a PD10 desalting column in CgnE buffer before the protein was diluted in HNO3 for analysis. For Fe2+ analysis, flow in the collision cell was set to 2 mL min -1 of H. The metal concentration was calculated by reference to a three -standard calibration line. Each sample value was corrected for procedural blank containing ultrapure water and 0.8 M HNO 3.
# CgnB and CgnE sequences were compared with TBLA STN[22] to whole-genome shotgun contigs of taxa listed in (Supplementary table 4). We have retrieved the corresponding genome segments and identified tandem appearances of homologous genes, as well as searched for candidate peptides in their genomic neigh borhood with custom Python and Perl scripts. Phylogenetic trees were constructed with RAxML[23] using the PROTGAMMAJTT model. Bootstrap values were computed using 100 bootstrap […]
# CsrA = settings: in vitro; cited from earlier work
# Source text: Their biosynthesis begins with the ribosomal expression of a short gene to yield a precursor peptide that usually consists of an N-terminal ‘leader’ and a C-terminal ‘core’ peptide. While the leader peptide is important for substrate recognition by the enzyme(s) installing class-defining modifications, the core peptide is ultimately converted into the final product and can be extensively modified[17]–[19]. Fe ...
# CgnD [2] = test: Labeling of CgnD with PMSF (LC-MS); assay type: biochemical, Chondromyces crocatus CM c5; settings: 10 µM CgnD, 10-fold excess PMSF, room temperature, 10 min
# Procedure: All structural images portrayed were rendered in PyMOL (The PyMOL Molecular Graphics System Version 1.8.6.0, Schrödinger, LLC).
# Purified, lyophilized 3a/b (see above) was dissolved in 20 mM sodium phosphate pH 7.2 containing 5%
# D2O. A similar sample of unmodified CgnA was analyzed for comparison. 1D 1H, 2D {1H,1H} NOESY, TOCSY and DQF-COSY and 2D {13C,1H} HSQC spectra were recorded for each sample on a Bruker AVANCE IIIHD/Ultrashield 600 spectrometer equipped with a TCI cryoprobe using Bruker TopSpin 3.5 software. After excluding peaks from unmodified CgnA in the modified sample, the assignments of the C-terminal residues of the modified CgnA species were made using COSY, TOCSY and inter - residue NOE cross peaks using CCPNMR analysis assign v3. 13C shifts were identified from the HSQC spectra where sensitivity allowed. The majority of the expected resonances were easily identified, but the near-degeneracy of the former tyrosine Hα and Hβ shifts meant that the nOe cross peaks required to identify the stereochemistry at the tyrosine Cβ were not resolved. Indeed, the observation of two separate […]
# Phenylmethylsulfonylfluoride (PMSF) can selectively modifying the catalytic serine of serine hydrolases via the formation of a covalent bond with the protein and can therefore be detected even in denaturing LC-MS conditions by a positive mass shift corresponding to the compound[21]. […]
# CgnB, CgnC and CgnE = test: In vitro processing of CgnA and variants by CgnB, CgnC and CgnE (LC-MS); assay type: biochemical, Chondromyces crocatus CM c5
# Procedure: All biochemical reactions were performed in 150 mM NaCl, 10 mM HEPES, 0.5 mM TCEP, pH 7.4. For CgnA–CgnB–CgnC reactions, a mixture of 50 µM CgnA, 10 µM CgnB, 5 µM CgnC, 4 mM ascorbic acid, 2.5 mM FeCl2 and 1 mM 2-oxoglutaric acid was incubated at 37 °C for 2 h. For CgnA–CgnB–CgnC–CgnE reactions, a mixture of 50 µM CgnA, 10 µM CgnB, 5 µM CgnC, 5 µM CgnE, 4 mM ascorbic acid, 2.5 mM FeCl2 and 1 mM 2-oxoglutaric acid was incubated at 37 °C for 2 h. The standard reaction volume was 50 µl. Proteins were precipitated by adding 50% acetonitrile and freezing the mixture at −80 °C for 2 h prior to liquid chromatography and mass spectrometry (LC-MS) analysis.
# CgnC = test: MST binding of CgnA to CgnC; design: species or system Chondromyces crocatus CM c5; settings: CgnC titrated
# Procedure: (§1) Supplementary Figure 13: Analysis of protein complexes using SEC and MST. a MST measurements to determine KDs of the protein pairs given. X/Y – Affinity of fluorescently labeled X to Y (titrated). + Z: Z was supplied at a constant, high concentration. […]
# (§2) Both samples were incubated at room temperature for 10 min prior to LC-MS analysis.
# (§3) Microscale Thermophoresis
# (§4) MST binding affinity measurements were performed using a Monolith NT 115 system (Nanotemper Technologies) with MO.Control v1.6 software. Labeling of different proteins was performed using the Monolith Labeling Kit RED-NHS 2nd generation according to the manufacturer’s instructions. For this, a 10 µM dilution of the desired protein was prepared in the supplied labeling buffer NHS (130 mM NaHCO3, 50 mM NaCl, pH 8.2). To yield a 600 μM dye solution, 25 μL DMSO was added to dry powder. For the labeling procedure, 7 μL of the freshly prepared dye solution was mixed with 7 μL of […]
# CgnD [3] = test: MST binding to CgnD; design: species or system Chondromyces crocatus CM c5; settings: microscale thermophoresis
# Target sequence in this assay (as listed by the source): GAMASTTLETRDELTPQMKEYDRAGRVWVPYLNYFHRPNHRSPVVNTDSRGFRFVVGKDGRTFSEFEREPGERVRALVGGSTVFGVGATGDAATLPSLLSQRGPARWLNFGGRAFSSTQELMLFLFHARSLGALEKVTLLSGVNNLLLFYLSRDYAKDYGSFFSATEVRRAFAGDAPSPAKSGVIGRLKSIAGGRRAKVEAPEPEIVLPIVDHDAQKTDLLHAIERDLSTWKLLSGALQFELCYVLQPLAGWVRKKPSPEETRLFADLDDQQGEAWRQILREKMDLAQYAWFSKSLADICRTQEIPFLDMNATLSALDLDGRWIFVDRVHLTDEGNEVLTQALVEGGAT
# CgnE [4] = test: MST binding of CgnA (or leader peptide) to CgnE; design: species or system Chondromyces crocatus CM c5
# Procedure: as §1, §2, §3, §4
# Target sequence in this assay (as listed by the source): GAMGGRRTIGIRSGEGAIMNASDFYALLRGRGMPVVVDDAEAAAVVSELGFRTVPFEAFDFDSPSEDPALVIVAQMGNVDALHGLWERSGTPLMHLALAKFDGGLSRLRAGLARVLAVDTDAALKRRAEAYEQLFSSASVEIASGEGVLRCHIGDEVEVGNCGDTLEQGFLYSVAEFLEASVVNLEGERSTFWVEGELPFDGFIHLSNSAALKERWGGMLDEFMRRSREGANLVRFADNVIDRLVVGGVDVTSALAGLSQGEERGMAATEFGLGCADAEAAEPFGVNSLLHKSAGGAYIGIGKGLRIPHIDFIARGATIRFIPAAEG
# CgnB = test: MST binding of CgnA (or leader peptide) to CgnB; design: species or system Chondromyces crocatus CM c5
# Procedure: as §1, §2, §3, §4
# CgnC, sequence (as listed by the source): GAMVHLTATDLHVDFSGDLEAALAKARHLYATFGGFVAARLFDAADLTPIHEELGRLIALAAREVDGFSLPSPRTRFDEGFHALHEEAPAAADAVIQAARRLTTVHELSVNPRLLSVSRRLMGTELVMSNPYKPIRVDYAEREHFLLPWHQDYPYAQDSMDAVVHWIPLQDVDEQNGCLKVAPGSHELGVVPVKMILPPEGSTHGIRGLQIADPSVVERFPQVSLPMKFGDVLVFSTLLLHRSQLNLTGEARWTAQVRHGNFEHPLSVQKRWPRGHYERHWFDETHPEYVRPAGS
molecule,measurement,setting,value
[Cl][Fe][Cl] [FeCl2],iron bound to CgnE,CgnE [1],No iron could be detected
"CC[C@H](C)[C@H](NC)C(=O)N[C@@H]1C(=O)N2[C@H](C(=O)O)[C@@H](OC(N)=O)[C@@H]3c4ccccc4N([C@@H]1c1ccc(O)cc1)[C@@H]32 [compound 1, crocagin A]",inhibition of CsrA,CsrA,inhibits
O=S(=O)(F)Cc1ccccc1 [phenylmethylsulfonyl fluoride],covalent labeling of CgnD,CgnD [2],inability to label CgnD
"Ile-Tyr-Trp [core peptide, three-amino-acid core peptide of CgnA (Ile-Tyr-Trp for crocagin)]",turnover of the core peptide with leader peptide in trans,"CgnB, CgnC and CgnE; CgnB–CgnC–CgnE reaction, leader peptide added in trans",marginal
MTMKKTIKQISAGDRSKKGNIYW [CgnA],affinity of CgnA–CgnC,CgnC,"No binding; also recorded: not CgnC, were able to bind CgnA"
same,binding to CgnD,CgnD [3],unable to detect binding
same,Kd,"CgnE [4]; Monolith NT 115, for CgnA: CgnE titrated, three independent samples, mean ± SD, read-out: KD (affinity) to CgnE",1.8 µM
same,weaker binding to CgnE than CgnA,CgnE [4]; leader peptide vs CgnA,~300 times
same,"processing by CgnB, CgnC and CgnE (product formation/turnover)","CgnB, CgnC and CgnE; 50 µM CgnA, 10 µM CgnB, 5 µM CgnC, 5 µM CgnE, 4 mM ascorbic acid, 2.5 mM FeCl2, 1 mM 2-oxoglutaric acid, pH 7.4, 37 °C, 2 h, LC-MS","formation of a major product with high turnover; also recorded: consumption of CgnA (magenta) and the formation of a major product (+14 Da, blue) as well as minor products (+16 Da, green; +30 Da"
same,product formation with CgnB and CgnC,"CgnB, CgnC and CgnE; 50 µM CgnA, 10 µM CgnB, 5 µM CgnC, cofactors, 37 °C, 2 h",two additional product peaks detected when compared to CgnA–CgnE or CgnA–CgnC reactions
same,product formation with CgnC and CgnE,"CgnB, CgnC and CgnE; CgnA + CgnC + CgnE with cofactors","formation of an additional, minor peak with a mass shift of +28 Da"
same,product formation with CgnC and cofactors,"CgnB, CgnC and CgnE; CgnA + CgnC + FeCl2, ascorbic acid, α-ketoglutarate","a new peak with a mass suggestive of hydroxylation (+16 Da), but the predominant peak remained unmodified CgnA; also recorded: formation of a minor +16 Da species"
same,"product formation with CgnC, no cofactors","CgnB, CgnC and CgnE; CgnA + CgnC without FeCl2, ascorbic acid and α-ketoglutarate",did not lead to observable product formation
same,product formation without CgnC,"CgnB, CgnC and CgnE; CgnA with CgnB, CgnE or both, LC-MS",did not result in any observable product peak
same,CgnA–CgnB interaction relative to CgnA–CgnE,CgnB; MST KD 10.5 vs 1.8 µM,five times weaker
same,CgnA–CgnB KD relative to SPR value,CgnB; MST vs surface plasmon resonance of ref 24,approximately one order of magnitude lower
same,Kd,"CgnB; MST, Monolith NT 115, RED-NHS label, CgnB titrated, three independent samples, mean ± SD, read-out: KD (affinity) of CgnA–CgnB",10.5 µM
same,affinity of CgnA–CgnB in presence of CgnE,"CgnB; MST, CgnE 250 µM constant, CgnB titrated",No binding; also recorded: we did not observe binding
